The values below come from US20240417405A1, “Substituted Spiro Derivatives” (Janssen Pharmaceutica NV, priority 2021, published 2024).

The subject of one assay is KO-52 cells. The assay is described as follows: Proliferation assay, spheroid-like growth, KO-52 (MLL wildtype control cell line). In kind it is cell-based, human. The following applies: Homo sapiens, 192 h, KO-52 control cells, 8 days, confluence as measure of spheroid size; read-out: spheroid assay_OneTime KO-52 IC50. In a few lines:
(§1)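 Cells seeded in ultra-low attachment round-bottom wells (200 MOLM14 or 300 KO-52 per well) with compound at several concentrations, DMSO 0.3%, grown 8 days at 37° C, 5% CO2. Spheroid size taken as confluence from day-8 live-cell images; IC50 from variable-slope fit, DMSO as 0% and high-dose reference compound as 100% effect.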

The next assay concerns MOLM14 cells. The assay is described as follows: Proliferation assay, spheroid-like growth, MOLM14 (MLL-AF9 rearranged). In kind it is cell-based, human. The following applies: Homo sapiens, MOLM-14, 192 h, 8 days, confluence as measure of spheroid size, read-out: spheroid assay_OneTime MOLM14 IC50. In a few lines: as §1
Assay [1] concerns the target T1, menin/MLL (terbium chelate-labeled menin, FITC-MBM1 peptide) (Homo sapiens, UniProt O00255, T541A).
T1 construct: Menin (a.a 1-610-6xhis tag)
T1 sequence (O00255 with tags, fused parts or gaps T541A): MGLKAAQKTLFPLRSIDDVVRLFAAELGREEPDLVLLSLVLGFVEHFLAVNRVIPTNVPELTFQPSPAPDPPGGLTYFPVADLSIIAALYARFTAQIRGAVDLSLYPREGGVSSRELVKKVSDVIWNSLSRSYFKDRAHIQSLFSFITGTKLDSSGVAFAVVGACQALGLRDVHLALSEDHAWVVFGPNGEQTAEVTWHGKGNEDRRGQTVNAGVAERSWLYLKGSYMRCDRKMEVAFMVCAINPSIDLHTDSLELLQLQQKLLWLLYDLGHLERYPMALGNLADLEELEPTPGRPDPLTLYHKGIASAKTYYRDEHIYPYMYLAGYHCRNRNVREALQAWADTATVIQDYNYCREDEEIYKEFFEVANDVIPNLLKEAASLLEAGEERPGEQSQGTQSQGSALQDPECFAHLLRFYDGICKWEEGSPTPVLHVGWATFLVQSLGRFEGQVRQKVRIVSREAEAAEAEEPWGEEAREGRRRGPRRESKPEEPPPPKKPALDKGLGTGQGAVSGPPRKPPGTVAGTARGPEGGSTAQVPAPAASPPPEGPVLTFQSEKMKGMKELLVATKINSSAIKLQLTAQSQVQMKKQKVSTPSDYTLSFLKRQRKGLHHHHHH
The assay is described as follows: Menin/MLL homogenous time-resolved fluorescence (HTRF) assay. Format: binding. The following applies: 30 min incubation. In a few lines: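 Terbium-labeled menin (aa 1-610, His-tagged; 200 pM) preincubated 30 min with compound, then 75 nM FITC-MBM1 peptide added for 15 min at ambient temperature in pH 7.5 Tris buffer, 0.5% DMSO. HTRF ratio 520/490 nm converted to % inhibition. IC50 came from an 11-point four-fold titration from 10 μM, floor 0.1 nM.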

As for `CC(C)[C@H]([C@H]1C[C@H](N2CC3(COC3)C2)C1)N1CC2(CCN(c3ncnnc3Oc3ccc(F)cc3-c3ncc(C#N)cc3C3CC3)C2)C1` (single isomer, unassigned) [Compound 95], the IC50 in the assay on KO-52 cells stood at 11.3 µM; with MOLM14 cells, 210 nM; in assay [1], 0.1 nM.

`CC(=O)N1CCN([C@H]2C[C@@H]([C@H](C(C)C)N3CC4(CCN(c5ncnnc5Oc5ccc(F)cc5-c5ncc(C#N)cc5C5CC5)C4)C3)C2)CC1` (single isomer, unassigned) [Compound 96]: the IC50 in the assay with KO-52 cells was greater than 15 µM; in the assay with MOLM14 cells, greater than 940 nM; in assay [1] it was 153 nM.

In the case of `CC(C)[C@@H]([C@H]1C[C@@H](N2C[C@H]3COC[C@H]3C2)C1)N1CC2(CCN(c3ncnnc3Oc3ccc(F)cc3-c3ncncc3C3CC3)C2)C1` (single isomer, unassigned) [Compound 97], the IC50 amounted to 0.31 µM in the assay with KO-52 cells, 3 nM in the assay on MOLM14 cells and 0.1 nM in assay [1].

Take `CC(C)[C@@H]([C@H]1C[C@@H](N2CCC(S(C)(=O)=O)CC2)C1)N1CC2(CCN(c3ncnnc3Oc3ccc(F)cc3-c3ncncc3C3CC3)C2)C1` (single isomer, unassigned) [Compound 98]: the IC50 in the assay on KO-52 cells is 4.35 µM; with MOLM14 cells, 58 nM; in assay [1], 0.4 nM.

Consider `CC(C)[C@@H]([C@H]1C[C@@H](N2CC[C@](C)(O)C2)C1)N1CC2(CCN(c3ncnnc3Oc3ccc(F)cc3-c3ncncc3C3CC3)C2)C1` (single isomer, unassigned) [Compound 99], for which the results for the IC50 (in the assay on KO-52 cells; in the assay with MOLM14 cells; in assay [1]) were 2 µM, 2 nM and 0.1 nM, respectively.

As to `CC(C)[C@@H]([C@H]1C[C@@H](N2CCC(C(=O)N(C)C)CC2)C1)N1CC2(CCN(c3ncnnc3Oc3ccc(F)cc3-c3ncncc3C3CC3)C2)C1` (single isomer, unassigned) [Compound 100], the IC50 was determined as 9.81 µM in the assay with KO-52 cells, 33 nM in the assay with MOLM14 cells and 0.1 nM in assay [1].

For the compound `CC(C)[C@@H]([C@H]1C[C@@H](N2CC3(CCO3)C2)C1)N1CC2(CCN(c3ncnnc3Oc3ccc(F)cc3-c3ncncc3C3CC3)C2)C1` (single isomer, unassigned) [Compound 101], the IC50 amounted to 1.07 µM with KO-52 cells, 10 nM with MOLM14 cells and 0.1 nM in assay [1].

For the compound `CC(C)[C@@H]([C@H]1C[C@@H](N2CC3(CCO3)C2)C1)N1CC2(CCN(c3ncnnc3Oc3ccc(F)cc3-c3cnncc3C3CC3)C2)C1` (single isomer, unassigned) [Compound 102], the IC50 was 8.47 µM with KO-52 cells, 12 nM in the assay with MOLM14 cells and 0.1 nM in assay [1].

In the case of `CC(C)[C@@H]([C@H]1C[C@H](N2CC3(CCO3)C2)C1)N1CC2(CCN(c3ncnnc3Oc3ccc(F)cc3-c3cnncc3C3CC3)C2)C1` (single isomer, unassigned) [Compound 103], the IC50 with KO-52 cells came to 12.2 µM; in the assay with MOLM14 cells it was 100 nM; in assay [1], 0.1 nM.

As to `CC(=O)N1CCN([C@H]2C[C@@H]([C@H](C(C)C)N3CC4(CCN(c5ncnnc5Oc5ccc(F)cc5-c5cnncc5C5CC5)C4)C3)C2)CC1` (single isomer, unassigned) [Compound 104], the IC50 in the assay with KO-52 cells was 11.8 µM; in the assay on MOLM14 cells it was 73 nM; in assay [1] it was 0.2 nM.

As to `CC(C)[C@@H]([C@H]1C[C@@H](N2CC3(COC3)C2)C1)N1CC2(CCN(c3ncnnc3Oc3ccc(F)cc3-c3cnncc3C3CC3)C2)C1` (single isomer, unassigned) [Compound 106], the IC50 is 4.99 µM in the assay on KO-52 cells, 11 nM in the assay on MOLM14 cells and 0.1 nM in assay [1].

For the compound `CC(C)[C@@H]([C@H]1C[C@H](N2CC3(COC3)C2)C1)N1CC2(CCN(c3ncnnc3Oc3ccc(F)cc3-c3cnncc3C3CC3)C2)C1` (single isomer, unassigned) [Compound 107], the figures for the IC50 (with KO-52 cells; in the assay with MOLM14 cells; in assay [1]) were greater than 15 µM, 76 nM and 0.1 nM, respectively.

For the compound `CO[C@H]1CCN([C@H]2C[C@@H]([C@H](C(C)C)N3CC4(CCN(c5ncnnc5Oc5ccc(F)cc5-c5cnncc5C5CC5)C4)C3)C2)C1` (single isomer, unassigned) [Compound 108], the IC50 was found to be 2.65 µM with KO-52 cells, 1 nM with MOLM14 cells and 0.2 nM in assay [1].

Take `CO[C@H]1CCN([C@H]2C[C@H]([C@H](C(C)C)N3CC4(CCN(c5ncnnc5Oc5ccc(F)cc5-c5cnncc5C5CC5)C4)C3)C2)C1` (single isomer, unassigned) [Compound 109]: the IC50 with KO-52 cells is greater than 15 µM; in the assay on MOLM14 cells, 53 nM; in assay [1] it was 0.1 nM.

On to `CC(C)[C@@H]([C@H]1C[C@@H](N2CC[C@@H](C(=O)N(C)C)C2)C1)N1CC2(CCN(c3ncnnc3Oc3ccc(F)cc3-c3cnncc3C3CC3)C2)C1` (single isomer, unassigned) [Compound 110], for which the half-inhibitory concentration (IC50) in the assay with KO-52 cells was found to be 6.84 µM; in the assay on MOLM14 cells, 12 nM; in assay [1], 0.1 nM.

For the compound `CC(C)[C@@H]([C@H]1C[C@H](N2CC[C@@H](C(=O)N(C)C)C2)C1)N1CC2(CCN(c3ncnnc3Oc3ccc(F)cc3-c3cnncc3C3CC3)C2)C1` (single isomer, unassigned) [Compound 111], the IC50 in the assay on KO-52 cells is greater than 15 µM; in the assay with MOLM14 cells, 120 nM; in assay [1], 0.2 nM.

`CC(C)[C@@H]([C@H]1C[C@@H](N2CC[C@](C)(O)C2)C1)N1CC2(CCN(c3ncnnc3Oc3ccc(F)cc3-c3cnncc3C3CC3)C2)C1` (single isomer, unassigned) [Compound 112]: the results for the IC50 (in the assay on KO-52 cells; in the assay with MOLM14 cells; in assay [1]) were 10.1 µM, 6 nM and 0.1 nM, respectively.

In the case of `CC(C)[C@@H]([C@H]1C[C@H](N2CC[C@](C)(O)C2)C1)N1CC2(CCN(c3ncnnc3Oc3ccc(F)cc3-c3cnncc3C3CC3)C2)C1` (single isomer, unassigned) [Compound 113], the figures for the IC50 (in the assay on KO-52 cells; in the assay with MOLM14 cells; in assay [1]) were greater than 15 µM, 200 nM and 0.2 nM, respectively.

For the compound `CC(C)[C@@H]([C@H]1C[C@@H](N2CC[C@@](C)(O)C2)C1)N1CC2(CCN(c3ncnnc3Oc3ccc(F)cc3-c3cnncc3C3CC3)C2)C1` (single isomer, unassigned) [Compound 114], the IC50 in the assay on KO-52 cells is 14.2 µM; with MOLM14 cells, 8 nM; in assay [1] it was 0.1 nM.

As to `CC(C)[C@@H]([C@H]1C[C@H](N2CC[C@@](C)(O)C2)C1)N1CC2(CCN(c3ncnnc3Oc3ccc(F)cc3-c3cnncc3C3CC3)C2)C1` (single isomer, unassigned) [Compound 115], the results for the IC50 (in the assay with KO-52 cells; in the assay on MOLM14 cells; in assay [1]) were greater than 15 µM, 430 nM and 0.2 nM, respectively.

Take `CC(C)[C@@H]([C@H]1C[C@@H](N2CC[C@H](C(=O)N(C)C)C2)C1)N1CC2(CCN(c3ncnnc3Oc3ccc(F)cc3-c3cnncc3C3CC3)C2)C1` (single isomer, unassigned) [Compound 116]: the results for the IC50 (in the assay on KO-52 cells; in the assay with MOLM14 cells; in assay [1]) were 8.89 µM, 7 nM and 0.1 nM, respectively.

Turning to `CC(C)[C@@H]([C@H]1C[C@H](N2CC[C@H](C(=O)N(C)C)C2)C1)N1CC2(CCN(c3ncnnc3Oc3ccc(F)cc3-c3cnncc3C3CC3)C2)C1` (single isomer, unassigned) [Compound 117], the IC50 with KO-52 cells was greater than 15 µM; with MOLM14 cells, 170 nM; in assay [1], 0.1 nM.

For the compound `CC(C)[C@H]([C@H]1C[C@@H](N2CC3(CCO3)C2)C1)N1CC2(CCN(c3ncnnc3Oc3ccc(F)cc3-c3cncnc3C3CC3)C2)C1` (single isomer, unassigned) [Compound 145], the IC50 with KO-52 cells was determined as 3.58 µM; with MOLM14 cells, 6 nM; in assay [1] it was 0.2 nM.

`CC(C)[C@H]([C@H]1C[C@H](N2CC3(CCO3)C2)C1)N1CC2(CCN(c3ncnnc3Oc3ccc(F)cc3-c3cncnc3C3CC3)C2)C1` (single isomer, unassigned) [Compound 146]: the IC50 is 6.6 µM in the assay with KO-52 cells, 160 nM in the assay on MOLM14 cells and 0.2 nM in assay [1].

On to `CC(C)[C@H]([C@H]1C[C@@H](N(C)C)C1)N1CC2(CCN(c3ncnnc3Oc3ccc(F)cc3-c3ncccc3C3CC3)C2)C1` (single isomer, unassigned) [Compound 147], for which the IC50 was 0.39 µM in the assay with KO-52 cells, 4 nM with MOLM14 cells and 0.1 nM in assay [1].

What is called IC50 is the concentration needed to halve the response being measured.
